Data on 16 compounds can be found in patent US20100168112A1, “2-Substituted and 4-substituted aryl nitrone compounds” (RENOVIS, INC., priority 2004, published 2010).

What is called Cmax is the highest concentration seen after dosing. The Tmax is the time at which the peak concentration occurs. By bioavailability is commonly meant the share of a dose that reaches the circulation, judged against a reference dose that is usually intravenous.

pEC50: −log10 of the molar value.

The nature of data set [1]: DPPH free radical-scavenging/antioxidant assay. Type of data set: biochemical. To be noted: 50 μM DPPH in 80% methanol; 24 h time point; read-out: EC50 (concentration at which a compound reduces by 50% the peak absorbance of DPPH at 520 nm). As for the experimental part:
Nitrone compounds of the present invention were tested for their free-radical scavenging/antioxidant activity in an in vitro assay that is accepted by those skilled in the art as a model for conditions involving the generation of free radicals. The assay is based on a reaction between a free-radical donor, 2,2-diphenyl-1-picrylhydrazyl (DPPH), and a radical scavenger/antioxidant to be tested for free-radical scavenging activity. Upon donation of the free-radical electron to the purported radical scavenger, the peak visible absorbance of DPPH (515-520 nm) decreases so that optical density readings at this part of the visual spectrum reflect the progression of the following reaction:
where AH is a hypothetical radical scavenger/antioxidant. The assay is based on a protocol originally detailed in Brand-Williams, W. et al., 1995, Use of a Free Radical Method to Evaluate Antioxidant Activity, Lebensm. Wiss. Technol., 28:25-30, with further modifications described in L. R. Fukumoto and G. Mazza, 2000, Assessing Antioxidant and Prooxidant Activities of Phenolic Compounds, J. Agric. Food Chem., 48:3597-3604.
The antioxidant assay was performed using Perkin-Elmer 96-well, clear-bottom, black-wall plates (ordered from E & K Scientific Products) and a Tecan Safire absorbance plate reader. The positive controls were Trolox (6-hydroxy-2,5,7,8-tetramethylchromane-2-carboxylic acid, Sigma-Aldrich), BHA (2(3)-tert-butylhydroquinone monomethyl ether, Sigma-Aldrich), PBN (C-(phenyl)-N-(tert-butyl)nitrone, Sigma-Aldrich) and S-PBN (C-(2-sulfophenyl)-N-(tert-butyl)nitrone, sodium salt, prepared according to E. G. Janzen and R. V. Shetty, 1979, Tetrahedron Lett., 35: 3229-32), and the negative control (i.e., vehicle) was DMSO. In brief, 2 μL of 100× DMSO stock of the desired final concentration of each control or nitrone compound to be tested in the same batch was added to a separate well. To each well was then added 198 μL of a freshly made 50 μM DPPH (Sigma-Aldrich) solution in 80% methanol using a multi-channel pipette. The absorbance was immediately read on the plate reader at 520 nm and thereafter read periodically to assess kinetics until all reactions reached completion (i.e., steady state). Since the steady-state point was 24 h, the assay results are shown from the 24 h time point. The absorbance at 520 nm (OD) was plotted versus the concentrations of the controls and nitrone compounds to assess dose-response and interpolate the EC50 values of the controls and test compounds.

Data set [2] is described as follows: Microsomal stability in human liver microsomes. Format: in vitro ADME. To be noted: NADPH, 37° C. The method, then:
Frozen Sprague-Dawley rat liver microsomes (RLM) were thawed on ice and gently mixed before use. The final reaction mixture consisted of a nitrone compound of this invention (at ˜500 ng/ml), 1 mM NADPH, and 0.5 mg/ml of RLM protein in 0.1 M PBS (pH7.4), with organic solvent concentration not exceeding 1% (v/v). Per set of incubations, a positive control compound was included. The mixture was first pre-incubated 3 to 5 minutes at 37° C. without NADPH, and the reaction was then initialized by the addition of NADPH and incubated at 37° C. for up to 30 minutes. An aliquot of the reaction mixture was sampled at the initiation of the reaction and at designated time after reaction started. The drawn samples were quenched with acetonitrile, diluted with mobile phase to ensure the detection of test article in the linear range, and analyzed by LC/MS/MS. Half-life or percentage of remaining nitrone compound was calculated using standard methods. A similar method, or a slight variation of it, was used to test the stability of nitrones in human liver microsomes (HLM).
(Liver microsomes are a subcellular fraction often used to study metabolism.)

Data set [3] in a line: Pharmacokinetic evaluation following intravenous and oral administration in rats. Format: in vivo. To be noted: male, Sprague-Dawley; for Cmax / Tmax / bioavailability: 5 mg/kg; for Cmax: rat plasma; for Cmax / Tmax: oral gavage, 2 mg/mL at 2.5 mL/kg; for clearance / Vd / Tmax / bioavailability / half-life: plasma, rat; for clearance / Vd / half-life: 1 mg/kg; for clearance / Vd: intravenous administration, 1 mg/mL at 1.0 mL/kg; for clearance: read-out: CI (clearance) (converted); for Vd: read-out: Vd (volume of distribution); for bioavailability: po 2 mg/mL at 2.5 mL/kg vs iv 1 mg/mL at 1.0 mL/kg, dose-normalized, read-out: F (%) oral bioavailability; for half-life: intravenous, read-out: T1/2 elimination half life (converted). The method, then: Male Sprague-Dawley rats were given at least 24 hours acclimation before experiment initiation. During acclimation period, all animals received food and water ad libitum. However, food (not water) was removed from the animal's cages up to 12 hours before initiation of the experiment. During the first 4 hours of experimentation, the animals received only water ad libitum. Two to three animals for iv and three animals for oral administration were tested. For iv formulation nitrone compounds of this invention were dissolved (1 mg/mL) in a mixture of 5% dimethyl acetamide (v/v), 0 to 4% Tween 80 (v/v), 10 to 40% PEG 400 (v/v) and the rest percentage of water (v/v). For oral formulation nitrone compounds of this invention were dissolved (2 mg/mL) in a mixture of 4% of 10% Tween in water and 96% of 0.5% carboxymethyl cellulose (medium viscosity) in water; or 4% of 10% Tween in water, 48% of 0.5% carboxymethyl cellulose (medium viscosity) in water, and 48% of 0.5% Hydroxypropyl Methylcellulose/0.2% Sodium Lauryl Sulfate in water. These formulations were stored at 5° C. until the experiment. Formulations were then stir-mixed at least half an hour before dosing. Exactly 200 μL of each left-over formulation was diluted with CH3CN/H2O for concentration analysis. The animals were weighed before dosing. The body weight was used to calculate the true dose for each animal:
IV dosing: • Dose volume (mL)=1.0 mL/kg The intravenous dose was administered through the jugular vein catheter or tail vein in less than 1 minute.
PO dosing: • Dose volume (mL)=2.5 mL/kg The oral dose was administered by oral gavage.
For IV dosing, blood samples were collected (using a pre-heparinized syringe) via the carotid artery or jugular vein catheter at t=2, 5, 15, 30, 60, 120, 180, 360, and 480 minutes post dosing. For PO dosing, blood samples were collected (using a pre-heparinized syringe) via the carotid artery or jugular vein catheter before dosing and at t=5, 15, 30, 60, 120, 180, 360, and 480 minutes post dosing. For some nitrone compounds a 1440 minutes (24 hours) sample was also taken for both IV and PO administrations. About 250 μL of blood was obtained at each time point from the animals. Equal volumes of 0.9% normal saline were replaced to prevent dehydration. The whole blood samples were maintained on ice until centrifugation. Blood samples were then centrifuged at 14,000 rpm for 10 minutes at 4° C. and the upper plasma layer transferred into a clean vial and stored at −80° C. The resulting plasma samples were then analyzed by mass spectroscopy using standard methods.
All the samples from above assays were analyzed on a PE-Sciex API 3000 triple quadrupole with a Turbo Ion Spray source. Nitrone compounds of this invention were separated from the matrix via a linear gradient reverse-phase chromatography using a C18 column, such as Thermo BDS Hypersil C18 (100×4.6 mm, 5 micron particle, 120A pore size). The mobile Phases were:
Nitrone compounds were detected by the mass spectrometer in the positive ion multiple reaction monitoring mode (MRM). For quantitative analysis, a standard curve was prepared by spiking a stock solution of the nitrone compound to the appropriate matrix to achieve a quantitation curve range and analyzed the standards in the same manner as the samples.
Pharmacokinetic parameters of the aryl nitrone compounds were determined by a noncompartmental analysis using WinNonlin-Pro (Version 4.1, Pharsight Corporation). Average and standard deviation of the parameters were calculated using standard formulas in Microsoft Excel.

In the case of `CC(C)/[N+]([O-])=C/c1ccc(S(=O)(=O)NC(C)(C)C)cc1` [Compound 59, N-Isopropyl-C-[4-(tert-butylsulfamoyl)phenyl]nitrone], the pEC50 in data set [1] was less than 3.00. For the same compound, the “% of Nitrone Remaining at 30 min (Human)” value in data set [2] came to 100%.
Regarding `CCN(CC)S(=O)(=O)c1ccc(/C=[N+](\[O-])C(C)C)cc1` [Compound 51, N-Isopropyl-C-(4-diethylsulfamoylphenyl)nitrone], in data set [1], the pEC50 was less than 3.00. Further, the “% of Nitrone Remaining at 30 min (Human)” value in data set [2] is 94%.
Turning to `CC(C)(C)NS(=O)(=O)c1ccc(/C=[N+](\[O-])C(C)(C)C)cc1` [Compound 58, N-tert-Butyl-C[4-(tert-butylsulfamoyl)phenyl]nitrone], in data set [1], the pEC50 is less than 3.00. The “% of Nitrone Remaining at 30 min (Human)” value in data set [2] is 100%.
Regarding `CN(c1ccccc1)S(=O)(=O)c1ccc(/C=[N+](\[O-])C2CCCCC2)cc1` [Compound 56, N-Cyclohexyl-C-[4-(methyl-phenyl-sulfamoyl)phenyl]nitrone], in data set [1], the pEC50 was less than 3.00. Besides, the “% of Nitrone Remaining at 30 min (Human)” value in data set [2] was found to be 33%.
For `CCN(CC)S(=O)(=O)c1ccc(/C=[N+](\[O-])C2CCCCC2)cc1` [Compound 52, N-Cyclohexyl-C-(4-diethylsulfamoylphenyl)nitrone], the “% of Nitrone Remaining at 30 min (Human)” value in data set [2] amounted to 64%.
Regarding `CC(C)(C)/[N+]([O-])=C/c1ccccc1S(=O)(=O)NCc1ccccc1` [Compound 49, N-tert-Butyl-C-(2-benzylsulfamoyl-phenyl)nitrone], in data set [1], the pEC50 was less than 3.00. Moreover, in data set [2], the “% of Nitrone Remaining at 30 min (Human)” value was found to be 0%.
As for `CN1CCN(S(=O)(=O)c2ccc(/C=[N+](\[O-])C(C)(C)C)cc2)CC1` [Compound 22, N-(tert-Butyl)-C-[4-(4-methyl-piperazine-1-sulfonyl)phenyl]nitrone], in data set [3], the Cmax was 703 ng/mL, the clearance is 36.8 mL/min/kg, the Vd is 1.83 L/kg and the Tmax came to 14.4 min. Moreover, in data set [3], the bioavailability was 15.6% and the half-life is 34.2 min. In data set [1], the pEC50 was less than 3.00.
As to `CC(C)(C)NS(=O)(=O)c1ccc(/C=[N+](\[O-])Cc2ccccc2)cc1` [Compound 61, N-Benzyl-C-[4-(tert-butylsulfamoyl)phenyl]nitrone], in data set [1], the pEC50 was less than 3.00. For the same compound, the “% of Nitrone Remaining at 30 min (Human)” value in data set [2] is 95%.
In the case of `CC(C)(C)/[N+]([O-])=C/c1ccc(S(=O)(=O)N2CCCC2)cc1` [Compound 29, N-(tert-Butyl)-C-[4-(pyrrolidine-1-sulfonyl)phenyl]nitrone], in data set [3], the Cmax was 114 ng/mL, the clearance is 38 mL/min/kg, the Vd was 0.97 L/kg and the Tmax was 11.4 min. Moreover, in data set [3], the bioavailability was determined as 4.3% and the half-life is 17.4 min. The pEC50 in data set [1] is less than 3.00.
`CC(C)(C)/[N+]([O-])=C/c1ccc(S(C)(=O)=O)nc1` [Compound 80, N-tert-Butyl-C-(6-methanesulfonyl-pyridine-3-yl)nitrone]: in data set [3], the Cmax stood at 3940 ng/mL, the clearance was 3.5 mL/min/kg, the Vd was determined as 0.52 L/kg and the Tmax was found to be 30 min. Besides, in data set [3], the bioavailability was found to be 54.7% and the half-life is 103 min. Further, the “% of Nitrone Remaining at 30 min (Human)” value in data set [2] amounted to 94.5%.
As for `CC(C)/[N+]([O-])=C/c1ccc(S(=O)(=O)N(C)c2ccccc2)cc1` [Compound 55, N-Isopropyl-C-[4-(methyl-phenyl-sulfamoyl)phenyl]nitrone], the “% of Nitrone Remaining at 30 min (Human)” value in data set [2] is 82%.
On to `CNS(=O)(=O)c1ccccc1/C=[N+](\[O-])C(C)(C)C` [Compound 47, N-tert-Butyl-C-(2-methylsulfamoyl-phenyl)nitrone], for which, in data set [1], the pEC50 is less than 3.00. Moreover, the “% of Nitrone Remaining at 30 min (Human)” value in data set [2] was found to be 100%.
On to `CN(c1ccccc1)S(=O)(=O)c1ccc(/C=[N+](\[O-])Cc2ccccc2)cc1` [Compound 57, N-Benzyl-C-[4-(methyl-phenyl-sulfamoyl)phenyl]nitrone], for which the pEC50 in data set [1] is less than 3.00. The “% of Nitrone Remaining at 30 min (Human)” value in data set [2] worked out at 14%.
For `CS(=O)(=O)c1ccc(/C=[N+](\[O-])Cc2ccccc2)cn1` [Compound 81, N-Benzyl-C-(6-methanesulfonyl-pyridine-3-yl)nitrone], the “% of Nitrone Remaining at 30 min (Human)” value in data set [2] is on record as 90.5%.
As for `CCN(CC)S(=O)(=O)c1ccc(/C=[N+](\[O-])C(C)(C)C)cc1` [Compound 50, N-tert-Butyl-C-(4-diethylsulfamoylphenyl)nitrone], the pEC50 in data set [1] was less than 3.00. Moreover, in data set [2], the “% of Nitrone Remaining at 30 min (Human)” value worked out at 86%.
As for `CCN(CC)S(=O)(=O)c1ccc(/C=[N+](\[O-])Cc2ccccc2)cc1` [Compound 53, N-Benzyl-C-(4-diethylsulfamoylphenyl)nitrone], the “% of Nitrone Remaining at 30 min (Human)” value in data set [2] worked out at 65%.
